For the experiment, the system named is L1210 leukemia ip in BDF1 mice, survival T/C. As to the kind of experiment: NCI In Vivo Anticancer Drug Screen. Data for tumor model L1210 Leukemia (intraperitoneal) in B6D2F1 (BDF1) mice. The note with it: endpoint: mean survival time, higher = longer survival. A digest of the protocol: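 Transplanted-tumor mice were given test agent; controls received vehicle only. Survival readings from the two groups were divided (treated over control).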

[1] abbreviates: dose: 100.0 mg/kg/injection, schedule: Q01DX001 (ip), vehicle: Klucel (hydroxypropylcellulose) (HPC).
Setting [2] is: dose: 200.0 mg/kg/injection, schedule: Q01DX001 (ip), vehicle: Klucel (hydroxypropylcellulose) (HPC).
Where [3] appears, read: dose: 400.0 mg/kg/injection, schedule: Q01DX001 (ip), vehicle: Klucel (hydroxypropylcellulose) (HPC).

“And” between values parts separate entries of the source, which are not always exact repeats. Identical values can stand only once. Toxic doses and inconclusive results are not listed.

For the compound `OCC1OC(n2cnc3c(=S)nc[nH]c32)CC1O` (stereo not drawn), the T/C (dose: 8.0 mg/kg/injection, schedule: Q01DX015 (ip), vehicle: saline) is 103 % of control; the T/C (dose: 16.0 mg/kg/injection, schedule: Q01DX015 (ip), vehicle: saline) was 108 % of control; the T/C (dose: 32.0 mg/kg/injection, schedule: Q01DX015 (ip), vehicle: saline) is 115 % of control; the T/C (dose: 50.0 mg/kg/injection, schedule: Q01DX001 (ip), vehicle: saline) was 104 % of control; the T/C (dose: 64.0 mg/kg/injection, schedule: Q01DX015 (ip), vehicle: saline) was 122 % of control; the T/C (dose: 100.0 mg/kg/injection, schedule: Q01DX001 (ip), vehicle: saline) was 106 % of control. For the same compound, the T/C was 113 % of control (dose: 178.0 mg/kg/injection, schedule: Q01DX001 (ip), vehicle: saline); 156 % of control (dose: 180.0 mg/kg/injection, schedule: Q01DX015 (ip), vehicle: saline); 115 % of control (dose: 200.0 mg/kg/injection, schedule: Q01DX001 (ip), vehicle: saline); 108 % of control (dose: 267.0 mg/kg/injection, schedule: Q01DX001 (ip), vehicle: saline); 154 % of control and 156 % of control (dose: 300.0 mg/kg/injection, schedule: Q01DX015 (ip), vehicle: saline); 121 % of control (dose: 400.0 mg/kg/injection, schedule: Q01DX001 (ip), vehicle: saline). The T/C (dose: 600.0 mg/kg/injection, schedule: Q01DX015 (ip), vehicle: saline) is 163 % of control.
On to `COc1ccc(COC2C(CO)OC(n3ccc(N)nc3=O)C2O)cc1` (stereo not drawn), for which the T/C runs as follows: (dose: 100.0 mg/kg/injection, schedule: Q01DX005 (ip), vehicle: saline) 100 % of control; (dose: 200.0 mg/kg/injection, schedule: Q01DX005 (ip), vehicle: saline) 94 % of control.
For the compound `COC(OC)(/C(Cl)=C(\Cl)c1ccccc1)c1ccccc1`, the T/C is 94 % of control (dose: 100.0 mg/kg/injection, schedule: Q04DX002 (ip), vehicle: saline with Tween-80) and 88 % of control (dose: 200.0 mg/kg/injection, schedule: Q04DX002 (ip), vehicle: saline with Tween-80).
As for `O=C(NCCC[P+](c1ccccc1)(c1ccccc1)c1ccccc1)OCc1ccccc1`, the T/C by setting is: (dose: 12.5 mg/kg/injection, schedule: Q01DX009 (ip), vehicle: carboxymethylcellulose (CMC)) 101 % of control and 120 % of control; (dose: 12.5 mg/kg/injection, schedule: Q04DX002 (ip), vehicle: carboxymethylcellulose (CMC)) 103 % of control; (dose: 25.0 mg/kg/injection, schedule: Q01DX001 (ip), vehicle: carboxymethylcellulose (CMC)) 87 % of control and 91 % of control; (dose: 25.0 mg/kg/injection, schedule: Q01DX009 (ip), vehicle: carboxymethylcellulose (CMC)) 103 % of control; (dose: 25.0 mg/kg/injection, schedule: Q04DX002 (ip), vehicle: carboxymethylcellulose (CMC)) 100 % of control and 91 % of control; (dose: 25.0 mg/kg/injection, schedule: Q04DX003 (ip), vehicle: carboxymethylcellulose (CMC)) 97 % of control and 98 % of control. In addition, the T/C is 95 % of control and 104 % of control (dose: 50.0 mg/kg/injection, schedule: Q01DX001 (ip), vehicle: carboxymethylcellulose (CMC)); 100 % of control (dose: 50.0 mg/kg/injection, schedule: Q04DX002 (ip), vehicle: carboxymethylcellulose (CMC)); 97 % of control and 100 % of control (dose: 50.0 mg/kg/injection, schedule: Q04DX003 (ip), vehicle: carboxymethylcellulose (CMC)).
`CC1OC(OC2C(O[C@H]3CC[C@@]4(C)C(=CC[C@H]5[C@@H]6C[C@@H]7O[C@]8(CC[C@H](C)CN8)[C@@H](C)[C@@H]7[C@@]6(C)CC[C@@H]54)C3)OC(CO)C(O)C2OC2OC(CO)C(O)C(O)C2O)C(O)C(O)C1O` (stereo partly drawn): the T/C was 97 % of control (dose: 5.0 mg/kg/injection, schedule: Q01DX001 (ip), vehicle: other); 109 % of control (dose: 10.0 mg/kg/injection, schedule: Q01DX001 (ip), vehicle: other); 106 % of control (dose: 20.0 mg/kg/injection, schedule: Q01DX001 (ip), vehicle: other).
In the case of `CN(C)c1ccc(C=O)cc1[N+](=O)[O-]`, the T/C was 94 % of control (dose: 50.0 mg/kg/injection, schedule: Q01DX009 (ip), vehicle: Klucel (hydroxypropylcellulose) (HPC)); 97 % of control (dose: 100.0 mg/kg/injection, schedule: Q01DX009 (ip), vehicle: Klucel (hydroxypropylcellulose) (HPC)); 97 % of control (dose: 100.0 mg/kg/injection, schedule: Q04DX003 (ip), vehicle: Klucel (hydroxypropylcellulose) (HPC)); 100 % of control (dose: 200.0 mg/kg/injection, schedule: Q01DX009 (ip), vehicle: Klucel (hydroxypropylcellulose) (HPC)); 92 % of control (dose: 200.0 mg/kg/injection, schedule: Q04DX003 (ip), vehicle: Klucel (hydroxypropylcellulose) (HPC)); 100 % of control (dose: 400.0 mg/kg/injection, schedule: Q04DX003 (ip), vehicle: Klucel (hydroxypropylcellulose) (HPC)).
In the case of `C1CN2CCOB(O1)OCC2`, the T/C reads like this: (dose: 69.0 mg/kg/injection, schedule: Q01DX009 (ip), vehicle: other) 103 % of control; (dose: 138.0 mg/kg/injection, schedule: Q01DX009 (ip), vehicle: other) 98 % of control; (dose: 275.0 mg/kg/injection, schedule: Q01DX009 (ip), vehicle: other) 98 % of control.
Take `CCOC(=O)CC(=O)c1cccc(S(=O)(=O)F)c1`: the T/C (dose: 100.0 mg/kg/injection, schedule: Q01DX009 (ip), vehicle: saline with Tween-80) is 98 % of control; the T/C (dose: 100.0 mg/kg/injection, schedule: Q04DX003 (ip), vehicle: saline with Tween-80) is 104 % of control; the T/C (dose: 200.0 mg/kg/injection, schedule: Q01DX009 (ip), vehicle: saline with Tween-80) is 103 % of control; the T/C (dose: 200.0 mg/kg/injection, schedule: Q04DX003 (ip), vehicle: saline with Tween-80) was 98 % of control; the T/C (dose: 400.0 mg/kg/injection, schedule: Q01DX009 (ip), vehicle: saline with Tween-80) is 92 % of control; the T/C (dose: 400.0 mg/kg/injection, schedule: Q04DX003 (ip), vehicle: saline with Tween-80) is 102 % of control.
As to `Cc1cc(C2=CCCCC2)c2ccccc2c1C`, the T/C runs as follows: under setting [1], 95 % of control; under setting [2], 103 % of control; under setting [3], 95 % of control.
For the compound `Cc1ccccc1-n1nnnc1N`, the T/C by setting is: (dose: 100.0 mg/kg/injection, schedule: Q04DX003 (ip), vehicle: saline) 102 % of control; (dose: 200.0 mg/kg/injection, schedule: Q04DX003 (ip), vehicle: saline) 96 % of control; (dose: 400.0 mg/kg/injection, schedule: Q04DX003 (ip), vehicle: saline) 98 % of control.
As for `CC1(C)C2CC3C(=CCC4C(=O)C5CC=C6C(CC7CC6C7(C)C)C5C(=O)C43)C1C2` (stereo not drawn), the T/C is 103 % of control under setting [1], 93 % of control under setting [2] and 93 % of control under setting [3].
`CC(O)Cc1c[nH]c(=O)[nH]c1=O` (stereo not drawn): the T/C runs as follows: (dose: 100.0 mg/kg/injection, schedule: Q01DX009 (ip), vehicle: water) 98 % of control; (dose: 100.0 mg/kg/injection, schedule: Q04DX003 (ip), vehicle: water) 94 % of control; (dose: 200.0 mg/kg/injection, schedule: Q01DX009 (ip), vehicle: water) 107 % of control; (dose: 200.0 mg/kg/injection, schedule: Q04DX003 (ip), vehicle: water) 98 % of control; (dose: 400.0 mg/kg/injection, schedule: Q01DX009 (ip), vehicle: water) 96 % of control; (dose: 400.0 mg/kg/injection, schedule: Q04DX003 (ip), vehicle: water) 93 % of control.
`CCOC(=O)C1(C)Nc2ccc3ccccc3c2NC1=O` (stereo not drawn): the T/C (dose: 100.0 mg/kg/injection, schedule: Q04DX002 (ip), vehicle: Klucel (hydroxypropylcellulose) (HPC)) is 93 % of control; the T/C (dose: 200.0 mg/kg/injection, schedule: Q04DX002 (ip), vehicle: Klucel (hydroxypropylcellulose) (HPC)) is 101 % of control; the T/C (dose: 400.0 mg/kg/injection, schedule: Q04DX002 (ip), vehicle: Klucel (hydroxypropylcellulose) (HPC)) is 101 % of control.
Consider `CN1CCN(C(=S)Nc2ccccc2)CC1`, for which the T/C runs as follows: (dose: 25.0 mg/kg/injection, schedule: Q01DX001 (ip), vehicle: Klucel (hydroxypropylcellulose) (HPC)) 98 % of control; (dose: 50.0 mg/kg/injection, schedule: Q01DX001 (ip), vehicle: Klucel (hydroxypropylcellulose) (HPC)) 106 % of control; under setting [1], 97 % of control and 107 % of control.
Consider `NC(=O)NC(=O)c1nccnc1C(=O)O`, for which the T/C is, setting by setting: (dose: 100.0 mg/kg/injection, schedule: Q01DX001 (ip), vehicle: water) 88 % of control; (dose: 200.0 mg/kg/injection, schedule: Q01DX001 (ip), vehicle: water) 101 % of control; (dose: 400.0 mg/kg/injection, schedule: Q01DX001 (ip), vehicle: water) 87 % of control.

Source of the values: PubChem BioAssay AID248 (DTP/NCI, 2004).
